The target in assay [1] is T1, Met (Homo sapiens, UniProt P08581).
T1 construct: purchased Life Technologies
The assay is described as follows: LanthaScreen Eu kinase binding assay, Met. The note with it: Tracer 236, read-out: cMet kinase binding activity (Kd). The protocol:
(§1) LanthaScreen® Eu Kinase Binding assays were conducted at Life Technologies using the manufacturer's specifications for each kinase indicated.
(§2) Briefly, the principle behind this assay is based upon the binding and displacement of an Alexa Fluor 647-labeled tracer to the kinase of interest. Binding of the tracer to the kinase is detected using an EU-labeled anti-tag antibody. Simultaneous binding of both the tracer and antibody to the kinase gives rise to a FRET-signal. Binding of an inhibitor to the kinase competes for binding with the tracer, resulting in a loss of FRET-signal.
(§3) Binding Assay Protocol for AXL, Mer, Tyro3 and Met
(§4) A given compound was diluted in DMSO to make a stock compound solution. The stock compound solution was serially diluted over eight steps in DMSO. Each diluted compound solution in DMSO was diluted in kinase buffer. Afterwards four kinds of working solution were prepared. First, Tracer-Working solution consists of Tracer 236 and Kinase Buffer. Second, Axl, Mer, Tyro3 or Met/anti-GST-AB-Working solution contained one of the kinases Axl, Mer, Tyro3, Met or anti-GST-AB (=anti glutathione-S-transferase antibody) in Kinase Buffer. Third, anti-GST-AB-Working solution was made with anti-GST-AB and Kinase Buffer. Last, in the DMSO-Working solution DMSO was added to Kinase Buffer to a final concentration to 3%. Each of the four kinds of working solutions were separately added to the assay plate and then incubated for 1 h at room temperature. After incubation, the assay plate was measured with respect to the FRET-Signal with the EnVision (Perkin Elmer) using the program LanthaHTRF-Assay. Data evaluation was done in the Quattro Workflow software.
(§5) Table 1 summarises the results obtained for AXL, Mer and Tyro3-kinases binding assays; table 2 summarises the results obtained for the Met kinase binding assay.
(Time-resolved FRET reads energy transfer from a long-lived donor to a nearby acceptor.)

The target of assay [2] is T2, Mer (Homo sapiens, UniProt Q12866).
T2 construct: purchased Life Technologies
T2 sequence (Q12866 21-999): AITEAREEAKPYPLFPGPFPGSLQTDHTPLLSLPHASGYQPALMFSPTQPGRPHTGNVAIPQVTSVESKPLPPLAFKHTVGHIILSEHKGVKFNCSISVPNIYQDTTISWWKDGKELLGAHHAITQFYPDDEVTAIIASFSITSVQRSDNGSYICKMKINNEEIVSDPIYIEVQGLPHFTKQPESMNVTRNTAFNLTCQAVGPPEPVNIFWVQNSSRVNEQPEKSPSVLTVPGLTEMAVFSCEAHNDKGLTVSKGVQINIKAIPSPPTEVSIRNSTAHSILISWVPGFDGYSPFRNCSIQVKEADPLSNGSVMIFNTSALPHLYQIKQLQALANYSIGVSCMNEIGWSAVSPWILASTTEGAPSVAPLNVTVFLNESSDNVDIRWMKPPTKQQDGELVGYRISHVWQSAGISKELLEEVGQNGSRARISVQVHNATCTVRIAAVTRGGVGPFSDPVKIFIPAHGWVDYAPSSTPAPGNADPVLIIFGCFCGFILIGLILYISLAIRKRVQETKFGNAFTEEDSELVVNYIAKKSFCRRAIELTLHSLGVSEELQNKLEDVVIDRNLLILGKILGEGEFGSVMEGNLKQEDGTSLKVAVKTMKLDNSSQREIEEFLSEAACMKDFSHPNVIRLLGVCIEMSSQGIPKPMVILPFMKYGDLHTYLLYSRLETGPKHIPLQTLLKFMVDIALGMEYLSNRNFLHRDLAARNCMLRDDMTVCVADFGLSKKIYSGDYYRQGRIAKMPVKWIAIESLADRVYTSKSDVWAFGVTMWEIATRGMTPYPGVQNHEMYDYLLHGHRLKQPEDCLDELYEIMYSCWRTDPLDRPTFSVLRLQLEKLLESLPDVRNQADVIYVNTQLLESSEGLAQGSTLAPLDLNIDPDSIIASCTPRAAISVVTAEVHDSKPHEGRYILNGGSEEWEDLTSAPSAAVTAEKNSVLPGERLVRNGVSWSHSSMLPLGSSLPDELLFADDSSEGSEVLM
The assay is described as follows: LanthaScreen Eu kinase binding assay, Mer. The note with it: Tracer 236. The procedure: as §1, §2, §3, §4, §5

Assay [3] concerns the target T3, TYRO3 (Homo sapiens, UniProt Q06418).
T3 construct: purchased Life Technologies
T3 sequence (Q06418 41-890): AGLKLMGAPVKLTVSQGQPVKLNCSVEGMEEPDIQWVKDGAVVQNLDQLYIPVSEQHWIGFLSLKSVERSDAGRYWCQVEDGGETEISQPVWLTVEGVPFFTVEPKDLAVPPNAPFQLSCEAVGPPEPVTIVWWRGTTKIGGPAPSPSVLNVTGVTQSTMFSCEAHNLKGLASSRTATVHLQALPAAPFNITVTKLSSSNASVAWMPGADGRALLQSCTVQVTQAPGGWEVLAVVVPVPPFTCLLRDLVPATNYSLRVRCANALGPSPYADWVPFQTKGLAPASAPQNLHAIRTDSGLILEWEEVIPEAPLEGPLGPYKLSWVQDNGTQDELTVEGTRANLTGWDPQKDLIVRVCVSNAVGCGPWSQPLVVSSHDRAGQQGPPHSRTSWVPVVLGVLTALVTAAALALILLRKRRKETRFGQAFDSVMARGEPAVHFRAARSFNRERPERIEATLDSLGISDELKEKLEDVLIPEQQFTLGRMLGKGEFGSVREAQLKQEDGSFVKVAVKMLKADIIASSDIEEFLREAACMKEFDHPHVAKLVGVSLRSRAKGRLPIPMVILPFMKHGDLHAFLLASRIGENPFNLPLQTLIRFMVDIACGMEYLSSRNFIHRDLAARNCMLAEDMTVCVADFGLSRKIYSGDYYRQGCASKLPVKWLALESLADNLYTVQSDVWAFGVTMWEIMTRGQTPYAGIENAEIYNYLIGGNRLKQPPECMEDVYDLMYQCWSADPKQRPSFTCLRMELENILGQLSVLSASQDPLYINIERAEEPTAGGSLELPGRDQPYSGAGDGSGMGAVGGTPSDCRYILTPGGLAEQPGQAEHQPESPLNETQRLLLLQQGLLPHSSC
As to the kind of experiment: LanthaScreen Eu kinase binding assay, TYRO3. The note with it: Tracer 236. The protocol:
as §1, §2, §3, §4, §5

In assay [4] the target is T4, Axl (Homo sapiens, UniProt P30530).
T4 construct: purchased Life Technologies
T4 sequence (P30530 26-894): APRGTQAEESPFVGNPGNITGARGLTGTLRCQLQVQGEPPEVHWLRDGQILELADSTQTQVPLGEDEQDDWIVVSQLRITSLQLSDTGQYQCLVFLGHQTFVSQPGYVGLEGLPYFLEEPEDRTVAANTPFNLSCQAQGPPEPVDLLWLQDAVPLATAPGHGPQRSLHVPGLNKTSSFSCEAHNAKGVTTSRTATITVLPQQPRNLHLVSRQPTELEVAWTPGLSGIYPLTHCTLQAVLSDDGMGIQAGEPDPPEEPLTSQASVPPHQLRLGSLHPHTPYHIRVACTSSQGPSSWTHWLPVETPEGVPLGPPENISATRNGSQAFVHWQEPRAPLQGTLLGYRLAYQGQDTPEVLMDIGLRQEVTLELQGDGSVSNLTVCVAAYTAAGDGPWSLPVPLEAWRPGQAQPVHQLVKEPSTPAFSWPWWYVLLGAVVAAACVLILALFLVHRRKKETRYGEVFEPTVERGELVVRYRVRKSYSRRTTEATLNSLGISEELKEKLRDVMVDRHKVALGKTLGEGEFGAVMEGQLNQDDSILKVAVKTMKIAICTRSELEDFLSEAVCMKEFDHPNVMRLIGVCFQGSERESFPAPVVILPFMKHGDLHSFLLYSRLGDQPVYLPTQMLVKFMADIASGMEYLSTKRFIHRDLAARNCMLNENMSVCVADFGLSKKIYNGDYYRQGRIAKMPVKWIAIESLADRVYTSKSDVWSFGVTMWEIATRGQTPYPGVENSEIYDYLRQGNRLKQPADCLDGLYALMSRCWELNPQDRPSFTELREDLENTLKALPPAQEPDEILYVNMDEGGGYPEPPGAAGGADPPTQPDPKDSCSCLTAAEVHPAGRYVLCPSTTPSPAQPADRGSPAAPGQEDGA
As to the kind of experiment: LanthaScreen Eu kinase binding assay, Axl. To be noted: Tracer 236. The protocol: as §1, §2, §3, §4, §5

Bounds are passed on as bounds.

As usually defined, the Kd is the free concentration of one partner at which half of the binding sites on the other are occupied at equilibrium, for simple one-to-one binding.

T1 sequence (P08581 25-1390): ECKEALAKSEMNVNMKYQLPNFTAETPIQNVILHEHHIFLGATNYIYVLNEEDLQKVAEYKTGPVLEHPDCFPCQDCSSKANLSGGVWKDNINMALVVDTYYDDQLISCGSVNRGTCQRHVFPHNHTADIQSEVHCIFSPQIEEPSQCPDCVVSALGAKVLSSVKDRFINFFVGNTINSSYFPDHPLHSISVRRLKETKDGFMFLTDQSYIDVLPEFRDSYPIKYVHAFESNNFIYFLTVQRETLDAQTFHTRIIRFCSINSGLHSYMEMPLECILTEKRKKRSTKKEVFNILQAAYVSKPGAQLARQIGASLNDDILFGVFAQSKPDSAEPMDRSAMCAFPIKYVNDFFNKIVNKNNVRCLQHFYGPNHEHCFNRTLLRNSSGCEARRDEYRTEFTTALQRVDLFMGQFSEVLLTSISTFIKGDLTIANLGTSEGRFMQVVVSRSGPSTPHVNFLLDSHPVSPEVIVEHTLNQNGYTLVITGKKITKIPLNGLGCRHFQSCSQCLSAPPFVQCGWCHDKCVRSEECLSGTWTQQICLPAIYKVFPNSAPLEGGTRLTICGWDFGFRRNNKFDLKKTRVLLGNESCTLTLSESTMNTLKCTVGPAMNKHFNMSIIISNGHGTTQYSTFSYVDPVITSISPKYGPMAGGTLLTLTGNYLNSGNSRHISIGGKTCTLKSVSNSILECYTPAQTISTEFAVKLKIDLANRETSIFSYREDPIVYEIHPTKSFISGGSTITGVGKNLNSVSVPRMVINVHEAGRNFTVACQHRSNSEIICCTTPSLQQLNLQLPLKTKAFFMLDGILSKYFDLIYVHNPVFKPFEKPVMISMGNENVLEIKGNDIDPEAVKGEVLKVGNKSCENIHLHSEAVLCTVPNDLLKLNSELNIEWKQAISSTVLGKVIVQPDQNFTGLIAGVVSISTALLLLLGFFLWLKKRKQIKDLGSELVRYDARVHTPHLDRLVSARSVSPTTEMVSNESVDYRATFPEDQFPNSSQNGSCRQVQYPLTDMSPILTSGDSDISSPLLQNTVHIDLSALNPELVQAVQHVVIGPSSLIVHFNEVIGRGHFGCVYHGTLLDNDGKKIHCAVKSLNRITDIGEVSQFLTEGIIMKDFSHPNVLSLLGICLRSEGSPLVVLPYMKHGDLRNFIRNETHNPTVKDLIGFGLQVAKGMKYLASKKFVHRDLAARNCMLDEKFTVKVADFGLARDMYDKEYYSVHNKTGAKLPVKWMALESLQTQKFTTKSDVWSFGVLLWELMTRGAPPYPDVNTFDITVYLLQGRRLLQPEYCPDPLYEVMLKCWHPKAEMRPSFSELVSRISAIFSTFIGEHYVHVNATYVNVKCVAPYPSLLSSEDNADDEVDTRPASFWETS

As to `CCOc1cnn(CCO)c1C(=O)Nc1ccc(Oc2ccnc3cc(OC)c(OC)cc23)cn1` [Compound 72], the Kd was 0.1 to 1 µM in assay [1], 0.1 to 1 µM in assay [2], at least 1 µM in assay [3] and at least 1 µM in assay [4].
As to `CCOc1cnn(CC2CCO2)c1C(=O)Nc1ccc(Oc2ccnc3cc(OC)c(OC)cc23)cn1` (stereo not drawn) [Compound 51], the Kd in assay [1] is 0.1 to 1 µM; in assay [2], 0.1 to 1 µM; in assay [3] it was at least 1 µM; in assay [4] it was 0.1 to 1 µM.
As to `CCOc1cn(-c2cnc(N)nc2)nc1C(=O)Nc1ccc(Oc2ccnc3cc(OC)c(OC)cc23)cc1F` [Compound 153], the Kd in assay [1], in assay [2], in assay [3] and in assay [4] was below 0.1 µM in each case.
Regarding `CCOc1cn(-c2cncnc2OC)nc1C(=O)Nc1ccc(Oc2ccnc3cc(OC)c(OC)cc23)cn1` [Compound 175], the Kd in assay [1], in assay [2], in assay [3] and in assay [4] was below 0.1 µM each time.
Turning to `CCOc1cnn(-c2cnc(N)nc2)c1C(=O)Nc1ccc(Oc2ccnc3cc(OC(C)C)c(OC)cc23)cc1F` [Compound 232], the Kd in assay [1] is at least 1 µM; in assay [2], 0.1 to 1 µM; in assay [3], at least 1 µM; in assay [4], 0.1 to 1 µM.
Take `CCOc1cn(CC(=O)O)nc1C(=O)Nc1ccc(Oc2ccnc3cc(OC)c(OC)cc23)cn1` [Compound 62]: the dissociation constant (Kd) is at least 1 µM in assay [1], below 0.1 µM in assay [2], at least 1 µM in assay [3] and 0.1 to 1 µM in assay [4].
As to `CCOc1cnn(Cc2cnccn2)c1C(=O)Nc1ccc(Oc2ccnc3cc(OC)c(OC)cc23)cc1F` [Compound 217], the Kd in assay [1] was 0.1 to 1 µM; in assay [2] it was 0.1 to 1 µM; in assay [3] it was at least 1 µM; in assay [4], at least 1 µM.
As to `CCOc1c[nH]nc1C(=O)Nc1ccc(Oc2ccnc3cc(OC)c(OC)cc23)cn1` [Compound 22], the Kd in assay [1] was 0.1 to 1 µM; in assay [2] it was below 0.1 µM; in assay [3], below 0.1 µM; in assay [4] it was 0.1 to 1 µM.
For the compound `CCOc1cn(-c2cnccn2)nc1C(=O)Nc1cc(C)c(Oc2ccnc3cc(OC)c(OC)cc23)cn1` [Compound 163], the Kd in assay [1] is below 0.1 µM; in assay [2], below 0.1 µM; in assay [3], at least 1 µM; in assay [4], below 0.1 µM.
With `CCOc1cn(-c2ccc(F)cc2C)nc1C(=O)Nc1ccc(Oc2ccnc3cc(OC)c(OC)cc23)cc1CO` [Compound 119], the Kd in assay [1], in assay [2], in assay [3] and in assay [4] was 0.1 to 1 µM each time.
As for `CCOc1cnn(CC)c1C(=O)Nc1ccc(Oc2ccnc3cc(OC)c(OC)cc23)cn1` [Compound 28], the Kd was 0.1 to 1 µM in assay [1], 0.1 to 1 µM in assay [2], at least 1 µM in assay [3] and 0.1 to 1 µM in assay [4].
Consider `COc1cc2nccc(Oc3ccc(NC(=O)c4nn(-c5ccc(F)c(C(C)=O)c5)cc4OCC(F)(F)F)nc3)c2cc1OC` [Compound 280], for which the Kd in assay [1], in assay [2], in assay [3] and in assay [4] was below 0.1 µM in each case.
For `CCOc1cn(CC(N)=O)nc1C(=O)Nc1ccc(Oc2ccnc3cc(OC)c(OC)cc23)cn1` [Compound 35], the Kd in assay [1] was at least 1 µM; in assay [2], below 0.1 µM; in assay [3] it was at least 1 µM; in assay [4], 0.1 to 1 µM.
As to `COCCOc1cnn(-c2cnc(N)nc2)c1C(=O)Nc1ccc(Oc2ccnc3cc(OC)c(OC)cc23)cn1` [Compound 245], the dissociation constant (Kd) in assay [1] was at least 1 µM; in assay [2], 0.1 to 1 µM; in assay [3] it was at least 1 µM; in assay [4], at least 1 µM.
On to `CCC(C)Oc1cc2nccc(Oc3ccc(NC(=O)c4c(OCC(F)(F)F)cnn4-c4cnc(N)nc4)nc3)c2cc1OC` (stereo not drawn) [Compound 238], for which the Kd in assay [1] was at least 1 µM; in assay [2], 0.1 to 1 µM; in assay [3], at least 1 µM; in assay [4], at least 1 µM.
As for `CCOc1cn(-c2cnccc2C(=O)OC)nc1C(=O)Nc1ccc(Oc2ccnc3cc(OC)c(OC)cc23)cn1` [Compound 172], the Kd in assay [1], in assay [2], in assay [3] and in assay [4] was below 0.1 µM each time.
In the case of `CCOc1cn(-c2ccc(F)cc2C)nc1C(=O)Nc1ccc(Oc2ccnc3cc(OC)c(OC)cc23)cc1C(F)(F)F` [Compound 109], the Kd in assay [1] is 0.1 to 1 µM; in assay [2], at least 1 µM; in assay [3], at least 1 µM; in assay [4] it was 0.1 to 1 µM.
In the case of `CCOc1c(C(=O)Nc2ccc(Oc3ccnc4cc(OC)c(OC)cc34)cn2)nn(-c2cccnc2)c1C` [Compound 156], the Kd in assay [1], in assay [2], in assay [3] and in assay [4] was below 0.1 µM each time.
